Experimental data as given in patent US8357717B2, “Spiro group-containing amide compounds having bradykinin 1 receptor (B1R) activity” (Gruenenthal GmbH, priority 2009, dated 2013).

Experiments:
[1] = target: T1, human B1R receptor (hB1R) (Homo sapiens, UniProt P46663); test: FLIPR Ca2+ functional study on bradykinin receptor 1, hB1R cells (CHO K1); type: cell-based; details: CHO-K1, 10 μM test substance; CHO K1 cells with human B1R; agonist Lys-Des-Arg9-bradykinin at EC80; read-out: B1R antagonism, human [10 μM] % inhibition
T1 construct: expressed in transfected cells; host or cells: CHO K1 cells, stably transfected
T1 sequence (P46663 1-353): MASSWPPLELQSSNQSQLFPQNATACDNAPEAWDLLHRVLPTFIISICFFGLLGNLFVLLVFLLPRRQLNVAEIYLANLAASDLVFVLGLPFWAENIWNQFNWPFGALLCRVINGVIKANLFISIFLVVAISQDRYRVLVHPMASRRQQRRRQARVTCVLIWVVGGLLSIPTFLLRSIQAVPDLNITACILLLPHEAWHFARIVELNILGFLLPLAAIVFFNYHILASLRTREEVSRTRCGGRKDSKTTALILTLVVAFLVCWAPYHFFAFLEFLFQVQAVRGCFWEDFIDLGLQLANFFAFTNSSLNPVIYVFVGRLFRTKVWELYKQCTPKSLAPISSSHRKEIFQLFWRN
Method: (§1) The agonistic or antagonistic activity of substances can be quantified on the bradykinin receptor 1 (B1R) of the species human and rat using ectopically expressing cell lines (CHO K1 cells) and with the aid of a Ca^2+-sensitive dye (Fluo-4) using a fluorescent imaging plate reader (FLIPR). The indication in % activation is based on the Ca^2+ signal after addition of Lys-Des-Arg^9-bradykinin (0.5 nM) or Des-Arg^9-bradykinin (100 nM). Antagonists lead to suppression of the Ca^2+ influx after the addition of the agonist. % Inhibition compared with the maximum achievable inhibition is indicated.
(§2) The agonistic or antagonistic activity of substances can be determined on the bradykinin receptor 1 (B1R) of the species human and rat using the following assay. According to this assay, the Ca^2+ influx through the channel is quantified with the aid of a Ca^2+-sensitive dye (Fluo-4 type, Molecular Probes Europe BV, Leiden, Netherlands) using a Fluorescent Imaging Plate Reader (FLIPR, Molecular Devices, Sunnyvale, USA).
(§3) Chinese hamster ovary cells (CHO K1 cells) which have been stably transfected with the human B1R gene (hB1R cells) or with the B1R gene of the rat (rB1R cells) are used. For functional studies, the cells are plated out on black 96-well plates having a clear base (BD Biosciences, Heidelberg, Germany or Greiner, Frickenhausen, Germany) in a density of 20,000-35,000 cells/well. The cells are left overnight at 37° C. and with 5% CO2 in culture medium (hB1R cells: Nutrient Mixture Ham's F12, Gibco Invitrogen GmbH, Karlsruhe, Germany or DMEM, Sigma-Aldrich, Taufkirchen, Germany; rB1R cells: D-MEM/F12, Gibco Invitrogen GmbH, Karlsruhe, Germany), with 10 vol. % FBS (fetal bovine serum, Gibco Invitrogen GmbH, Karlsruhe, Germany or PAN Biotech GmbH, Aidenbach, Germany). On the following day, the cells are loaded for 60 minutes at 37° C. with 2.13 μM Fluo-4 (Molecular Probes Europe BV, Leiden, Netherlands) in HBSS buffer (Hank's buffered saline solution, Gibco Invitrogen GmbH, Karlsruhe, Germany) […] (Sigma-Aldrich, Taufkirchen, Germany) and 10 mM HEPES (Sigma-Aldrich, Taufkirchen, Germany). The plates are then washed twice with HBSS buffer, and HBSS buffer additionally containing 0.1% BSA (bovine serum albumin; Sigma-Aldrich, Taufkirchen, Germany), 5.6 mM glucose and 0.05% gelatin (Merck KGaA, Darmstadt, Germany) is added to the plates. After incubation for a further 20 minutes at room temperature, the plates are inserted into the FLIPR for Ca^2+ measurement. Alternatively, washing is carried out with buffer A (15 mM HEPES, 80 mM NaCl, 5 mM KCl, 1.2 mM CaCl2, 0.7 mM MgSO4, 2 g/l glucose, 2.5 mM probenecid) followed by loading with buffer A with added 2.5 μM Fluo-4 and 0.025% Pluronic F127 (Sigma-Aldrich, Taufkirchen, Germany). The cells are then washed twice with buffer A and incubated for 30 minutes at room temperature with buffer A additionally containing 0.05% BSA and 0.05% gelatin and are then inserted into the FLIPR for Ca^2+ measurement. The Ca^2+-dependent fluorescence is measured before and after the addition of substances (λex=488 nm, λem=540 nm). Quantification is carried out by measuring the highest fluorescence intensity (FC, fluorescence counts) over time.
(§4) The FLIPR protocol consists of two substance additions. Test substances (10 μM) are first pipetted onto the cells and the Ca^2+ influx is compared with the control (hB1R: Lys-Des-Arg^9-bradykinin >=50 nM; rB1R: Des-Arg^9-bradykinin 10 μM). This gives the activation in %, based on the Ca^2+ signal after addition of Lys-Des-Arg^9-bradykinin (>=50 nM) or Des-Arg^9-bradykinin (10 μM). After 10-20 minutes' incubation, Lys-Des-Arg^9-bradykinin (hB1R) or Des-Arg^9-bradykinin (rB1R) is applied in the concentration of the EC80, and the influx of Ca^2+ is likewise determined. Antagonists lead to suppression of the Ca^2+ influx. The % inhibition compared with the maximum achievable inhibition is calculated. […]

[2] = target: T2, B1R receptor of the rat (rB1R) (Rattus norvegicus, UniProt P97583); test: FLIPR Ca2+ functional study on bradykinin receptor 1, rB1R cells (CHO K1); type: cell-based; details: 10 μM test substance; CHO K1 cells with rat B1R; agonist Des-Arg9-bradykinin at EC80; read-out: B1R antagonism, rat [10 μM] % inhibition
T2 construct: expressed in transfected cells; host or cells: CHO K1 cells, stably transfected
T2 sequence (P97583 1-337): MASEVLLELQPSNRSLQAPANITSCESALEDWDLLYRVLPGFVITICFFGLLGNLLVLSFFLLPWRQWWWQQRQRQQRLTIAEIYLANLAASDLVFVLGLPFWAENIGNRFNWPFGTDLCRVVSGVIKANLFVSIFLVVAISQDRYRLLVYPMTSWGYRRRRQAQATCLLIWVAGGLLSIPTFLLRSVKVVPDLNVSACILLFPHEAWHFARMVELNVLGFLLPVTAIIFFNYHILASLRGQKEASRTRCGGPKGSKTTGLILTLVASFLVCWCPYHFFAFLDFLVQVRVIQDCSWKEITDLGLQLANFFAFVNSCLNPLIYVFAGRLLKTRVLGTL
Method: as §1, §2, §3, §4

| SMILES | inhibition at 10 µM [1] | inhibition at 10 µM [2] |
| --- | --- | --- |
| COc1cc(C)c(S(=O)(=O)N2CCc3ccc(CC(=O)N4CCC5(CC4)CCN(c4ccncc4)CC5)cc32)c(C)c1 [Compound G-20, 2-(1-(4-Methoxy-2,6-dimethylphenylsulfonyl)indolin-6-yl)-1-(9-(pyridin-4-yl)-3,9-diazaspiro[5.5]undecan-3-yl)ethanone] | 100% | 102% |
| COc1cc(C)c(S(=O)(=O)N2CCCc3ccc(CC(=O)N4CCC5(CC4)CCN(c4ccncc4)CC5)cc32)c(C)c1 [Compound G-25, 2-(1-(4-Methoxy-2,6-dimethylphenylsulfonyl)-1,2,3,4-tetrahydroquinolin-7-yl)-1-(9-(pyridin-4-yl)-3,9-diazaspiro[5.5]undecan-3-yl)ethanone] | 100% | 98% |
| COc1cc(C)c(S(=O)(=O)N2CCc3onc(C(=O)N4CCC5(CC4)CCN(c4ccncc4)CC5)c3C2)c(C)c1 [Compound G-26, (5-(4-Methoxy-2,6-dimethylphenylsulfonyl)-4,5,6,7-tetrahydroisoxazolo[4,5-c]pyridin-3-yl)(9-(pyridin-4-yl)-3,9-diazaspiro[5.5]undecan-3-yl)methanone] | 99% | 95% |
| COc1cc(C)c(S(=O)(=O)N2CCCc3ccc(CC(=O)N4CCC5(CCC(Oc6ccncc6)CC5)CC4)cc32)c(C)c1 [Compound G-30, 2-(1-(4-Methoxy-2,6-dimethylphenylsulfonyl)-1,2,3,4-tetrahydroquinolin-7-yl)-1-(9-(pyridin-4-yloxy)-3-azaspiro[5.5]undecan-3-yl)ethanone] | 46% | 98% |
| COc1cc(C)c(S(=O)(=O)N2CCCc3ccc(CC(=O)N4CCC5(CCC(N6CCC6)CC5)CC4)cc32)c(C)c1 [Compound G-32, 1-(9-(Azetidin-1-yl)-3-azaspiro[5.5]undecan-3-yl)-2-(1-(4-methoxy-2,6-dimethylphenylsulfonyl)-1,2,3,4-tetrahydroquinolin-7-yl)ethanone] | 91% | 102% |
| COc1cc(C)c(S(=O)(=O)N2CCCc3ccc(CC(=O)N4CCC5(CC4)CC(c4ccncc4)=NO5)cc32)c(C)c1 [Compound G-33, 2-(1-(4-Methoxy-2,6-dimethylphenylsulfonyl)-1,2,3,4-tetrahydroquinolin-7-yl)-1-(3-(pyridin-4-yl)-1-oxa-2,8-diazaspiro[4.5]dec-2-en-8-yl)ethanone] | 65% | 73% |
| COc1cc(C)c(S(=O)(=O)N2CCCc3ccc(CC(=O)N4CCC5(CCC(N6CC(F)(F)C6)CC5)CC4)cc32)c(C)c1 [Compound G-34, 1-(9-(3,3-Difluoroazetidin-1-yl)-3-azaspiro[5.5]undecan-3-yl)-2-(1-(4-methoxy-2,6-dimethylphenylsulfonyl)-1,2,3,4-tetrahydroquinolin-7-yl)ethanone] | 18% | 86% |

Continued, values first:

| inhibition at 10 µM [1] | inhibition at 10 µM [2] | SMILES |
| --- | --- | --- |
| 95% | 101% | O=C(c1ccc2c(c1)N(C(=O)c1ccccc1Cl)CCC2)N1CCC2(CC1)CCN(c1ccncc1)CC2 [Compound G-21, (1-(2-Chlorobenzoyl)-1,2,3,4-tetrahydroquinolin-7-yl)(9-(pyridin-4-yl)-3,9-diazaspiro[5.5]undecan-3-yl)methanone] |
| 99% | 100% | COc1cc(C)c(S(=O)(=O)N2CCCc3ccc(C(=O)N4CCC5(CC4)CCN(c4ccncc4)CC5)cc32)c(C)c1 [Compound G-24, (1-(4-Methoxy-2,6-dimethylphenylsulfonyl)-1,2,3,4-tetrahydroquinolin-7-yl)(9-(pyridin-4-yl)-3,9-diazaspiro[5.5]undecan-3-yl)methanone] |
| 79% | 101% | O=C(Cc1ccc2c(c1)N(S(=O)(=O)c1ccc(OC(F)(F)F)cc1Cl)CCC2)N1CCC2(CC1)CCN(c1ccncc1)CC2 [Compound G-35, 2-(1-(2-Chloro-4-(trifluoromethoxy)phenylsulfonyl)-1,2,3,4-tetrahydroquinolin-7-yl)-1-(9-(pyridin-4-yl)-3,9-diazaspiro[5.5]undecan-3-yl)ethanone] |
| 99% | 99% | COc1cc(C)c(S(=O)(=O)N2CCc3cccc(C(=O)N4CCC5(CC4)CCN(c4ccncc4)CC5)c3C2)c(C)c1 [Compound G-36, (2-(4-Methoxy-2,6-dimethylphenylsulfonyl)-1,2,3,4-tetrahydroisoquinolin-8-yl)(9-(pyridin-4-yl)-3,9-diazaspiro[5.5]undecan-3-yl)methanone] |
| 99% | 90% | Cc1cccc(Cl)c1S(=O)(=O)N1CCc2cccc(C(=O)N3CCC4(CC3)CCN(c3ccncc3)CC4)c2C1 [Compound G-37, (2-(2-Chloro-6-methylphenylsulfonyl)-1,2,3,4-tetrahydroisoquinolin-8-yl)(9-(pyridin-4-yl)-3,9-diazaspiro[5.5]undecan-3-yl)methanone] |
| 97% | 91% | O=C(c1cccc2c1CN(S(=O)(=O)c1cccc(Cl)c1Cl)CC2)N1CCC2(CC1)CCN(c1ccncc1)CC2 [Compound G-38, (2-(2,3-Dichlorophenylsulfonyl)-1,2,3,4-tetrahydroisoquinolin-8-yl)(9-(pyridin-4-yl)-3,9-diazaspiro[5.5]undecan-3-yl)methanone] |
| 99% | 89% | COc1cc(C)c(S(=O)(=O)N2CCc3ccc(CC(=O)N4CCC5(CC4)CCN(c4ccncc4)CC5)cc3C2)c(C)c1 [Compound G-39, 2-(2-(4-Methoxy-2,6-dimethylphenylsulfonyl)-1,2,3,4-tetrahydroisoquinolin-7-yl)-1-(9-(pyridin-4-yl)-3,9-diazaspiro[5.5]undecan-3-yl)ethanone] |
